{
  "source": "patent US8778889B2",
  "about": "“Antimicrobial decapeptide oral hygiene treatment” (The United States of America as represented by the …, priority 2003, dated 2014)",
  "key": {"[1]": {"system": "Actinomyces naeslundii", "assay": "Adherence inhibition of tritiated A. naeslundii to saliva-coated HA disks", "type": "cell-based", "details": "disks pretreated with KSL-W 1 mg/ml; 2 hour incubation at 37° C.", "method": "In these studies, saliva-coated HA disks pre-treated with salivary proteins, KSL-W (1 mg/ml), or chlorhexidine (1 mg/ml), were used as colonizable surfaces to test the adherence of tritiated A. naeslundii, an early colonizer that is involved in dental plaque formation. In these experiments, labeled A. naeslundii ([…] cells per ml) were incubated for 2 h with HA disks that were pre-treated with different agents."}, "[2]": {"system": "A. baumannii WRAMC #13", "type": "cell-based, Acinetobacter baumannii", "source_text": "(§1) As shown in the table below, many drug-resistant pathogens including multidrug-resistant Acinetobacter baumannii (clinical isolates) were susceptible to the bactericidal activity of the newly developed antimicrobial peptides. […] This is shown by their lower MIC and MBC against a number of antibiotic-resistant bacteria including methicillin-resistant Staphylococcus aureus, vancomycin-resistant Enterococci, and multidrug-resistant Acinetobacter baumannii. Many of these resistant strains are involved in nosocomial infections, which affect the immunocompromised and the elderly individuals with weakened defenses. The tests were done in a broth microdilution assay as described in our earlier publication (Concannon et al., 2003)."}, "[3]": {"system": "A. baumannii WRAMC #5", "type": "cell-based, Acinetobacter baumannii", "source_text": "as §1"}, "[4]": {"system": "A. baumannii WRAMC #15", "type": "cell-based, Acinetobacter baumannii", "source_text": "as §1"}, "[5]": {"system": "A. baumannii ATCC #19606", "type": "cell-based, Acinetobacter baumannii", "source_text": "as §1"}, "[6]": {"system": "A. baumannii WRAMC #8", "type": "cell-based, Acinetobacter baumannii", "source_text": "as §1"}, "[7]": {"system": "A. baumannii WRAMC #11", "type": "cell-based, Acinetobacter baumannii", "source_text": "as §1"}, "[8]": {"system": "A. baumannii WRAMC #18", "type": "cell-based, Acinetobacter baumannii", "source_text": "as §1"}, "[9]": {"system": "A. baumannii WRAMC #14", "type": "cell-based, Acinetobacter baumannii", "source_text": "as §1"}, "[10]": {"system": "A. baumannii WRAMC #17", "type": "cell-based, Acinetobacter baumannii", "source_text": "as §1"}, "[11]": {"system": "A. baumannii WRAMC #19", "type": "cell-based, Acinetobacter baumannii", "source_text": "as §1"}, "[12]": {"system": "A. baumannii WRAMC #16", "type": "cell-based, Acinetobacter baumannii", "source_text": "as §1"}, "[13]": {"system": "A. baumannii WRAMC #2", "type": "cell-based, Acinetobacter baumannii", "source_text": "as §1"}, "[14]": {"system": "A. baumannii WRAMC #4", "type": "cell-based, Acinetobacter baumannii", "source_text": "as §1"}, "[15]": {"system": "MRSA WRAMC #9", "type": "cell-based, Staphylococcus aureus", "source_text": "as §1"}, "[16]": {"system": "MRSA WRAMC #12", "type": "cell-based, Staphylococcus aureus", "source_text": "as §1"}, "[17]": {"system": "MRSA ATCC #33591", "type": "cell-based, Staphylococcus aureus", "source_text": "as §1"}, "[18]": {"system": "MRSA VVRAMC #1", "type": "cell-based, Staphylococcus aureus", "source_text": "as §1"}, "[19]": {"system": "MRSA VVRAMC #10", "type": "cell-based, Staphylococcus aureus", "source_text": "as §1"}, "[20]": {"system": "MRSA ATCC #43300", "type": "cell-based, Staphylococcus aureus", "source_text": "as §1"}, "[21]": {"system": "VRE WRAMC #3", "type": "cell-based, Enterococci", "source_text": "as §1"}, "[22]": {"system": "VRE VVRAMC #7", "type": "cell-based, Enterococci", "source_text": "as §1"}, "[23]": {"system": "VRE ATCC #51299", "type": "cell-based, Enterococci", "source_text": "as §1"}, "[24]": {"system": "VRE WRAMC #6", "type": "cell-based, Enterococci", "source_text": "as §1"}},
  "data": [
    {"substance": "H-KKVVFWVKFK-NH2 [KSL-W, NH2-Lys-Lys-Val-Val-Phe-Trp-Val-Lys-Phe-Lys-CONH2]", "values": [
      {"measurement": "adherence of tritiated A. naeslundii to pretreated HA disks", "setting": "[1]", "result": "great reduction in the number of bacteria that attached"},
      {"measurement": "MBC", "setting": "[2]", "result": 50, "unit": "µg/mL"},
      {"measurement": "MBC", "setting": "[3]", "result": 25, "unit": "µg/mL"},
      {"measurement": "MIC", "setting": "[3]", "result": 12.5, "unit": "µg/mL"},
      {"measurement": "MBC", "setting": "[4]", "result": 50, "unit": "µg/mL"},
      {"measurement": "MBC", "setting": "[5]", "result": 100, "unit": "µg/mL"},
      {"measurement": "MBC", "setting": "[6]", "result": 25, "unit": "µg/mL"},
      {"measurement": "MBC", "setting": "[7]", "result": 25, "unit": "µg/mL"},
      {"measurement": "MBC", "setting": "[8]", "result": 25, "unit": "µg/mL"},
      {"measurement": "MIC", "setting": "[8]", "result": 12.5, "unit": "µg/mL"},
      {"measurement": "MBC", "setting": "[9]", "result": 50, "unit": "µg/mL"},
      {"measurement": "MIC", "setting": "[9]", "result": 25, "unit": "µg/mL"},
      {"measurement": "MBC", "setting": "[10]", "result": 25, "unit": "µg/mL"},
      {"measurement": "MBC", "setting": "[11]", "result": 100, "unit": "µg/mL"},
      {"measurement": "MIC", "setting": "[11]", "result": 50, "unit": "µg/mL"},
      {"measurement": "MBC", "setting": "[12]", "result": 50, "unit": "µg/mL"},
      {"measurement": "MBC", "setting": "[13]", "result": 100, "unit": "µg/mL"},
      {"measurement": "MIC", "setting": "[13]", "result": 25, "unit": "µg/mL"},
      {"measurement": "MBC", "setting": "[14]", "result": 25, "unit": "µg/mL"},
      {"measurement": "MBC", "setting": "[15]", "result": ">200", "unit": "µg/mL"},
      {"measurement": "MIC", "setting": "[15]", "result": 200, "unit": "µg/mL"},
      {"measurement": "MBC", "setting": "[16]", "result": ">200", "unit": "µg/mL"},
      {"measurement": "MIC", "setting": "[16]", "result": 200, "unit": "µg/mL"},
      {"measurement": "MBC", "setting": "[17]", "result": 200, "unit": "µg/mL"},
      {"measurement": "MIC", "setting": "[17]", "result": 100, "unit": "µg/mL"},
      {"measurement": "MBC", "setting": "[18]", "result": 100, "unit": "µg/mL"},
      {"measurement": "MBC", "setting": "[19]", "result": 200, "unit": "µg/mL"},
      {"measurement": "MBC", "setting": "[20]", "result": 50, "unit": "µg/mL"},
      {"measurement": "MIC", "setting": "[20]", "result": 25, "unit": "µg/mL"},
      {"measurement": "MBC", "setting": "[21]", "result": 200, "unit": "µg/mL"},
      {"measurement": "MIC", "setting": "[21]", "result": 100, "unit": "µg/mL"},
      {"measurement": "MBC", "setting": "[22]", "result": 25, "unit": "µg/mL"},
      {"measurement": "MBC", "setting": "[23]", "result": 200, "unit": "µg/mL"},
      {"measurement": "MIC", "setting": "[23]", "result": 100, "unit": "µg/mL"},
      {"measurement": "MBC", "setting": "[24]", "result": 100, "unit": "µg/mL"},
      {"measurement": "MIC", "setting": "[24]", "result": 12.5, "unit": "µg/mL"}
    ]}
  ]
}
